Measured values: US11845752B2, “Substituted imidazo[1,5-a]pyrazines for the treatment of hepatitis B” (ALIGOS THERAPEUTICS, INC., priority 2020, dated 2023)

System: HBV
Test: HBV-DNA antiviral assay using HepG2.117 cells (intracellular HBV DNA by qPCR)
Type: cell-based, HBV genotype D
Settings: Hepatitis B virus, HepG2.117, 72 h, HBV DNA inhibition, 3 days incubation, read-out: EC50
Outline: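 HepG2.117 cells (stably integrated genotype D HBV, Tet-off) seeded without doxycycline to induce pgRNA, then treated next day with 9 concentrations (4-fold dilutions, 2% DMSO) for 3 days at 37 °C. Intracellular HBV DNA quantified by qPCR against standard curve, viability by ATP content; inhibition relative to DMSO control, EC50/EC90/CC50 by non-linear regression.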

O=C(NCc1ccccc1-c1ncccn1)c1c2n(c(=O)n1-c1ccc(OC3CC3)cc1)C[C@@H](CO)N(C(=O)c1ccc(Br)c(C(F)(F)F)c1)C2 (stereo in doubt) [Compound 131, 7-[4-bromo-3-(trifluoromethyl)benzoyl]-2-[4-(cyclopropoxy)phenyl]-6-(hydroxymethyl)-3-oxo-N-[(2-pyrimidin-2-ylphenyl)methyl]-6,8-dihydro-5H-imidazo[1,5-a]pyrazine-1-carboxamide]
EC50: 500 to 5000 nM

CC1Cn2c(c(C(=O)NCc3ccccc3-c3cccnn3)n(-c3ccc(OCC(C)(O)C(F)(F)F)cc3)c2=O)CN1C(=O)c1ccc(Br)c(C(F)(F)F)c1 (stereo not shown) [Compound 85a, 7-(4-bromo-3-(trifluoromethyl)benzoyl)-6-methyl-3-oxo-N-(2-(pyridazin-3-yl)benzyl)-2-(4-(3,3,3-trifluoro-2-hydroxy-2-methylpropoxy)phenyl)-2,3,5,6,7,8-hexahydroimidazo[1,5-a]pyrazine-1-carboxamide]
EC50: 50 to 500 nM

CC(C)(O)COc1ccc(-n2c(C(=O)NCc3ccccc3)c3n(c2=O)CCN(C(=O)c2ccc(Br)c(Cl)c2)C3)cc1 [Compound 114, N-benzyl-7-(4-bromo-3-chloro-benzoyl)-2-[4-(2-hydroxy-2-methyl-propoxy)phenyl]-3-oxo-6,8-dihydro-5H-imidazo[1,5-a]pyrazine-1-carboxamide]
EC50: 50 to 500 nM

C[C@@H]1CN(c2ccc(-n3c(C(=O)NCc4ccccc4)c4n(c3=O)CCN(C(=O)c3ccc(Br)c(Cl)c3)C4)cc2)CCN1C [Compound 116, N-benzyl-7-(4-bromo-3-chloro-benzoyl)-3-oxo-2-[4-[(3R)-3,4-dimethylpiperazin-1-yl]phenyl]-6,8-dihydro-5H-imidazo[1,5-a]pyrazine-1-carboxamide]
EC50: 50 to 500 nM

CC1(O)CN(c2ccc(-n3c(C(=O)NCc4ccccc4)c4n(c3=O)CCN(C(=O)c3ccc(Br)c(Cl)c3)C4)cc2)C1 [Compound 117, N-benzyl-7-(4-bromo-3-chloro-benzoyl)-2-[4-(3-hydroxy-3-methyl-azetidin-1-yl)phenyl]-3-oxo-6,8-dihydro-5H-imidazo[1,5-a]pyrazine-1-carboxamide]
EC50: 50 to 500 nM

O=C(NCc1ccccc1)c1c2n(c(=O)n1-c1ccc(N3CC(O)(C(F)(F)F)C3)cc1)CCN(C(=O)c1ccc(Br)c(Cl)c1)C2 [Compound 118, N-benzyl-7-(4-bromo-3-chloro-benzoyl)-2-[4-[3-hydroxy-3-(trifluoromethyl)azetidin-1-yl]phenyl]-3-oxo-6,8-dihydro-5H-imidazo[1,5-a]pyrazine-1-carboxamide]
EC50: 50 to 500 nM

O=C(NCc1ccccc1)c1c2n(c(=O)n1-c1ccc(N3CCOC(F)(F)C3)cc1)CCN(C(=O)c1ccc(Br)c(Cl)c1)C2 [Compound 119, N-benzyl-7-(4-bromo-3-chloro-benzoyl)-2-[4-(2,2-difluoromorpholin-4-yl)phenyl]-3-oxo-6,8-dihydro-5H-imidazo[1,5-a]pyrazine-1-carboxamide]
EC50: 50 to 500 nM

O=C(NCc1ccccc1)c1c2n(c(=O)n1-c1ccc(N3CCOC4(CC4)C3)cc1)CCN(C(=O)c1ccc(Br)c(Cl)c1)C2 [Compound 120, N-benzyl-7-(4-bromo-3-chloro-benzoyl)-2-[4-(4-oxa-7-azaspiro[2.5]octan-7-yl)phenyl]-3-oxo-6,8-dihydro-5H-imidazo[1,5-a]pyrazine-1-carboxamide]
EC50: 50 to 500 nM

O=C(NCc1ccccc1)c1c2n(c(=O)n1-c1ccc(N3CC4CCC(C3)O4)cc1)CCN(C(=O)c1ccc(Br)c(Cl)c1)C2 [Compound 121, N-benzyl-7-(4-bromo-3-chloro-benzoyl)-2-[4-(8-oxa-3-azabicyclo[3.2.1]octan-3-yl)phenyl]-3-oxo-6,8-dihydro-5H-imidazo[1,5-a]pyrazine-1-carboxamide]
EC50: 50 to 500 nM

O=C(NCc1ccccc1)c1c2n(c(=O)n1-c1ccc(N3CCN(CC(F)(F)F)CC3)cc1)CCN(C(=O)c1ccc(Br)c(Cl)c1)C2 [Compound 122, N-benzyl-7-(4-bromo-3-chloro-benzoyl)-3-oxo-2-[4-[4-(2,2,2-trifluoroethyl)piperazin-1-yl]phenyl]-6,8-dihydro-5H-imidazo[1,5-a]pyrazine-1-carboxamide]
EC50: 50 to 500 nM

Cn1cnc2cc(-n3c(C(=O)NCc4ccccc4)c4n(c3=O)CCN(C(=O)c3ccc(Br)c(Cl)c3)C4)ccc21 [Compound 123, N-benzyl-7-(4-bromo-3-chloro-benzoyl)-2-(1-methylbenzimidazol-5-yl)-3-oxo-6,8-dihydro-5H-imidazo[1,5-a]pyrazine-1-carboxamide]
EC50: 500 to 5000 nM

Cn1cnc2ccc(-n3c(C(=O)NCc4ccccc4)c4n(c3=O)CCN(C(=O)c3ccc(Br)c(Cl)c3)C4)cc21 [Compound 124, N-benzyl-7-(4-bromo-3-chloro-benzoyl)-2-(3-methylbenzimidazol-5-yl)-3-oxo-6,8-dihydro-5H-imidazo[1,5-a]pyrazine-1-carboxamide]
EC50: 500 to 5000 nM

O=C(NCc1ccccc1)c1c2n(c(=O)n1-c1ccc3ocnc3c1)CCN(C(=O)c1ccc(Br)c(Cl)c1)C2 [Compound 126, 2-(1,3-benzoxazol-5-yl)-N-benzyl-7-(4-bromo-3-chloro-benzoyl)-3-oxo-6,8-dihydro-5H-imidazo[1,5-a]pyrazine-1-carboxamide]
EC50: 500 to 5000 nM

CNc1nc2cc(-n3c(C(=O)NCc4ccccc4)c4n(c3=O)CCN(C(=O)c3ccc(Br)c(Cl)c3)C4)ccc2o1 [Compound 127, N-benzyl-7-(4-bromo-3-chloro-benzoyl)-2-[2-(methylamino)-1,3-benzoxazol-5-yl]-3-oxo-6,8-dihydro-5H-imidazo[1,5-a]pyrazine-1-carboxamide]
EC50: 500 to 5000 nM

O=C(NCc1ccccc1)c1c2n(c(=O)n1-c1ccc3c(ccn3CCO)c1)CCN(C(=O)c1ccc(Br)c(Cl)c1)C2 [Compound 128, N-benzyl-7-(4-bromo-3-chloro-benzoyl)-2-[1-(2-hydroxyethyl)indol-5-yl]-3-oxo-6,8-dihydro-5H-imidazo[1,5-a]pyrazine-1-carboxamide]
EC50: 50 to 500 nM

O=C(NCc1ccccc1)c1c2n(c(=O)n1-c1ccc(OC3CC(O)C3)cc1)CCN(C(=O)c1ccc(Br)c(Cl)c1)C2 (stereo not shown) [Compound 129, N-benzyl-7-(4-bromo-3-chloro-benzoyl)-2-[4-(3-hydroxycyclobutoxy)phenyl]-3-oxo-6,8-dihydro-5H-imidazo[1,5-a]pyrazine-1-carboxamide]
EC50: 50 to 500 nM
